This passage reports Km results from paper PMC7475179, “Characterization of a caffeoyl-CoA O-methyltransferase-like enzyme involved in biosynthesis of polymethoxylated flavones in Citrus reticulata” (Journal of Experimental Botany, 2020).

The subject of this assay is CrOMT1. As to the kind of experiment: MTase-Glo methyltransferase assay (SAH luminescence), Michaelis-Menten fit. The class given is biochemical, Citrus reticulata. The note with it: 2 mM SAM, 50 mM Tris-HCl pH 8.0, 37 °C, 30 min.

As a reminder, the Km is the substrate concentration at which the rate is half of its maximum. Consider `O=C1C[C@@H](c2ccc(O)c(O)c2)Oc2cc(O)cc(O)c21` [eriodictyol], for which the Km is 61.8 ± 9.9 µM. Turning to `O=c1c(O)c(-c2ccc(O)c(O)c2)oc2cc(O)cc(O)c12` [quercetin], the Km came out at 4.5 ± 0.8 µM. On to `O=c1cc(-c2ccccc2)oc2c(O)c(O)ccc12` [7,8-dihydroxyflavone], for which the Km (8-O-methylation) was 1.8 ± 0.4 µM. Regarding `COc1c(-c2ccc(O)c(O)c2)oc2cc(O)cc(O)c2c1=O` [quercetin 3-methyl ether], the Km came out at 3.9 ± 0.5 µM.

On to `C[C@@H]1O[C@@H](OC[C@H]2O[C@@H](Oc3cc(O)c4c(c3)O[C@H](c3ccc(O)c(O)c3)CC4=O)[C@H](O)[C@@H](O)[C@@H]2O)[C@H](O)[C@H](O)[C@H]1O` [eriocitrin, eriodictyol-7-O-rutinoside], for which the Michaelis constant (Km) was 7.9 ± 1 µM. Take `O=c1c(O)c(-c2ccc(O)cc2)oc2cc(O)cc(O)c12` [kaempferol]: the Km was 248 µM. Consider `O=c1c(O)c(-c2cc(O)c(O)c(O)c2)oc2cc(O)cc(O)c12` [myricetin], for which the Km is 23.8 ± 4.3 µM. `C[C@@H]1O[C@@H](O[C@H]2[C@H](Oc3cc(O)c4c(c3)O[C@H](c3ccc(O)c(O)c3)CC4=O)O[C@H](CO)[C@@H](O)[C@@H]2O)[C@H](O)[C@H](O)[C@H]1O` [neoeriocitrin, eriodictyol-7-O-neohesperidoside]: the Km stood at 8.7 ± 1 µM. With `O=c1cc(-c2ccc(O)c(O)c2)oc2cc(O)cc(O)c12` [luteolin, 5,7,3',4'-tetrahydroxyflavone], the Km (3'-O-methylation) came out at 3.1 ± 0.6 µM.

Turning to `O=c1cc(-c2cc(O)c(O)c(O)c2)oc2cc(O)cc(O)c12` [tricetin], the Km stood at 0.6 µM. Regarding `O=c1cc(-c2ccccc2)oc2cc(O)c(O)c(O)c12` [baicalein], the Km (6-O-methylation) worked out at 3.3 ± 0.6 µM.
